In patent US20190161480A1, “Chemical Compounds” (GLAXOSMITHKLINE INTELLECTUAL PROPERTY DEVELOPMENT LIMITED, priority 2016, published 2019):
Entries after “also recorded” stand apart in the source; their conditions may differ.

What was measured:
PI3Kδ in CD4+ T cells = assay: Cellular washout in CD4+ T cells (αCD3 stimulation, IFNγ readout); type: cell-based, human; conditions: IC50 curve 48 h after washing cells versus no wash; five donors
Description: CD4+T cells were isolated from leukodepletion filter samples taken from healthy volunteers using Histopaque 1077 (Sigma Aldrich). Briefly, blood was allowed to drip into a 50 mL falcon tube and mixed with PBS (40 mL). 20 mL of diluted blood was then slowly layered onto 15 mL of Histopaque in a 50 mL falcon tube, which was then centrifuged at 800 rcf for 20 min at room temperature. The PBMC layer was then collected with a pasteur pipette into a new 50 mL falcon tube, and up to 50 mL of PBS was added. Cells were centrifuged at 300-400 rcf for 10 min at room temperature, supernatant was discarded and a second washing step was performed with PBS. Cells were then resuspended in 40 mL PBS+0.5% Bovine Serum Albumin (BSA). Isolation of CD4+T cells was performed according to manufacturer's protocol (Miltenyi Biotec, 130-096-533). 1×10^6 CD4+T cells were dispensed into a 24 well plate with a final volume of 1 mL per well. Compounds at 1000× the final assay concentration, or DMSO, were then added to wells and cells were incubated for 2 h. 2×10^5 cells and media was added to a 96-well plate (in duplicate) and classified as no-wash. […] Supernatant and cells were centrifuged at 800 rcf for 5 min and 120 μL of supernatant was collected and analysed using MSD IFNγ kit as detailed above for the human whole-blood assay. […]

PI3Kγ = PI3Kγ (Homo sapiens, UniProt P48736); assay: PI3K HTRF assay, PI3K-gamma; type: biochemical; conditions: read-out: pIC50 PI3Kγ (converted); note: 15 µM ATP
Sequence of PI3Kγ (P48736 whole entry, species assumed): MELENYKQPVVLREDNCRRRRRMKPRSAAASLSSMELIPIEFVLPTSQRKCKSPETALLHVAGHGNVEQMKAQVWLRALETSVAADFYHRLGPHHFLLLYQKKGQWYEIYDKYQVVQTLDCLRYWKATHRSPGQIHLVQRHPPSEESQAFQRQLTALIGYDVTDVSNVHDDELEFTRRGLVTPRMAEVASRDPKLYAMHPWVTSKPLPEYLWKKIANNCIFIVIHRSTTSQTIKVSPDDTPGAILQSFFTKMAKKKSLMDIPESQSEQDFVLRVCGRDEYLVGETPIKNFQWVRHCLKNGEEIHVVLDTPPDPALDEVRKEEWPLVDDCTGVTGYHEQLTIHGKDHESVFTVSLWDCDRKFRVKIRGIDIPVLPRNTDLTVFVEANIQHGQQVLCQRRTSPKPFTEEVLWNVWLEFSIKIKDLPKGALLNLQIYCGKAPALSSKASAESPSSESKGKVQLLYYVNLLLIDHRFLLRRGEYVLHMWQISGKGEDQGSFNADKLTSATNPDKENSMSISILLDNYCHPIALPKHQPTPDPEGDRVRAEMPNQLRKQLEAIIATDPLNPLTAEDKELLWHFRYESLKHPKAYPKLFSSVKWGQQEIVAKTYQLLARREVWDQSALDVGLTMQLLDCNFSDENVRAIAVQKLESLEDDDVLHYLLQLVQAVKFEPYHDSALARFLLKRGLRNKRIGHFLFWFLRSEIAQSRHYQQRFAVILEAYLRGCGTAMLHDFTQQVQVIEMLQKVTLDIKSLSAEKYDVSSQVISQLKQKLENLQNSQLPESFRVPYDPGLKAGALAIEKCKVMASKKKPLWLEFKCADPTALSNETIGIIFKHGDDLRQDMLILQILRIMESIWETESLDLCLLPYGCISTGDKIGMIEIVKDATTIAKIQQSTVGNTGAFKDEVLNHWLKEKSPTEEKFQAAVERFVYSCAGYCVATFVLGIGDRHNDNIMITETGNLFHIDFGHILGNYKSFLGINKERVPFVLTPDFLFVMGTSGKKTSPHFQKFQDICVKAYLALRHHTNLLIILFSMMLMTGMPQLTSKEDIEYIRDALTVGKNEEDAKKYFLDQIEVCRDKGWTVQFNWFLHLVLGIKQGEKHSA
Description: (§1) The binding of compounds to PI3K-alpha/beta/delta/gamma is determined by homogeneous time resolved fluorescence (HTRF) assays as follows;
(§2) Briefly, solid compound is dissolved in 100% DMSO at a concentration of 2 mM. Dilutions are prepared in 100% DMSO using a 1 in 4 serial step dilution. The dilutions are transferred to black low volume Greiner assay plates ensuring that the DMSO concentration is constant across the plate at 1% (0.1 μL/well).
(§3) PI3K Reaction Buffer (contains 50 mM HEPES pH 7.0 (NaOH), 150 mM NaCl, 10 mM MgCl2, 2.3 mM sodium cholate, […] CHAPS made up in milliQ water). Fresh DTT is added at a final concentration of 1 mM on the day of use.
(§4) Enzyme solutions: 1× PI3K Assay Buffer containing: • 550 pM PI3K-Alpha enzyme (275 pM final assay concentration) • 800 pM PI3K-Beta enzyme (400 pM final assay concentration) • 3 nM PI3K-Delta enzyme (1.5 nM final assay concentration) • 10 nM PI3K-Gamma enzyme (5 nM final assay concentration)
(§5) These concentrations are optimal to achieve a signal:background of between 1.5-4.5. The enzyme solution is added to columns 1-24 (3 μL/well) and plates are incubated for 15 minutes at room temperature.
(§6) Substrate solution: 1× PI3K Assay Buffer containing: • PI3K-Alpha: 500 μM ATP, 20 μM PIP2 and 120 nM biotin-PIP3.
(§7) This is added to all wells and plates are incubated for 1 hour at room temperature.
(§8) Detection solution: PI3K Detection Buffer (contains 50 mM HEPES pH 7.0 (HCl), 150 mM NaCl, 2.3 mM sodium cholate, 10 μM CHAPS, 240 mM potassium fluoride) containing 2 mM DTT (2× final assay concentration), 90 nM GRP-1 PH domain, 300 nM Streptavidin-APC and 24 nM Europium-anti-GST (6× final assay concentrations).
(§9) This is mixed left at room temperature (protected from light).
(§10) STOP solution: PI3K STOP Buffer (contains 50 mM HEPES pH 7.0 (HCl), 150 mM NaCl, 2.3 mM sodium cholate, 10 μM CHAPS, 150 mM EDTA).
(§11) Detection solution is diluted 1:1 with STOP solution and added to all wells (3 μL/well). Plates are covered and incubated on the bench for 45-60 minutes.
(§12) Plates are read on a PerkinElmer Envision, measuring TR-FRET between the complex formed between the GST-tagged PH domain and biotinylated PIP3 which both recruit fluorophores (Europium-labelled anti-GST & Strep-APC respectively). In the […] of an inhibitor, this complex is disrupted by the competitive action of non-biotinylated PIP3 (formed in the assay by the phosphorylation of PIP2 by the kinase & ATP). From this, the ratio of acceptor/donor was calculated (λex=317 nm, Δem donor=615 nm, Δem acceptor=665 nm) and used for data analysis.

PI3Kα = PI3Kα (Homo sapiens, UniProt P42336); assay: PI3K HTRF assay, PI3K-alpha; type: biochemical; conditions: read-out: pIC50 PI3Kα (converted); note: 250 µM ATP
Sequence of PI3Kα (P42336 whole entry, species assumed): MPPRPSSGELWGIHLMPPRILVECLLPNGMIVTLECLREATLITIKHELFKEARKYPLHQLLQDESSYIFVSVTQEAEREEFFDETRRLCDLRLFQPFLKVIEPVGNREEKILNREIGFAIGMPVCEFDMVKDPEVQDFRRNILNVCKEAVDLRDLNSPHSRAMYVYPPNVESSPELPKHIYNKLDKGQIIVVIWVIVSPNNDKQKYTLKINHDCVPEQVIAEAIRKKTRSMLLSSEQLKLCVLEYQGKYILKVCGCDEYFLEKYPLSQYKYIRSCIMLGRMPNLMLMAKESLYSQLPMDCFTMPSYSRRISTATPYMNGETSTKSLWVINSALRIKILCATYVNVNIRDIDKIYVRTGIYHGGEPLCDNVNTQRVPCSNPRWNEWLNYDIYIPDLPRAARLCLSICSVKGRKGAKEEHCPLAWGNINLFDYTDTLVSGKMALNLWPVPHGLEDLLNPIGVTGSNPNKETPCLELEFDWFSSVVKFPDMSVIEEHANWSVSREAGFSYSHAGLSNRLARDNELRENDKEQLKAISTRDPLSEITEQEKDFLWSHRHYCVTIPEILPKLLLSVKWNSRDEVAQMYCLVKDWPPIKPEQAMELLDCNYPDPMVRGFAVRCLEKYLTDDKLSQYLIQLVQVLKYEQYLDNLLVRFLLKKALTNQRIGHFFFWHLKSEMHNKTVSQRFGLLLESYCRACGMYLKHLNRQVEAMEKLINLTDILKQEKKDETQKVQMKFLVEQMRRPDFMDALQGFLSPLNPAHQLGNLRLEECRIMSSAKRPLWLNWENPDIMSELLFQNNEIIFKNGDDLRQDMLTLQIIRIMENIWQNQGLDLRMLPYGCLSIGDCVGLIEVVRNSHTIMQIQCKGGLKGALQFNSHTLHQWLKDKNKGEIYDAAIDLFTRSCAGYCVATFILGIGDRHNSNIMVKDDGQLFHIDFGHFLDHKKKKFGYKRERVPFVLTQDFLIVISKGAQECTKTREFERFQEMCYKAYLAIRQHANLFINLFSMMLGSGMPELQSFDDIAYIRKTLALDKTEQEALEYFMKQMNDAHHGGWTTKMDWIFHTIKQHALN
Sequence of PI3Kα (P27986 whole entry partner, species assumed): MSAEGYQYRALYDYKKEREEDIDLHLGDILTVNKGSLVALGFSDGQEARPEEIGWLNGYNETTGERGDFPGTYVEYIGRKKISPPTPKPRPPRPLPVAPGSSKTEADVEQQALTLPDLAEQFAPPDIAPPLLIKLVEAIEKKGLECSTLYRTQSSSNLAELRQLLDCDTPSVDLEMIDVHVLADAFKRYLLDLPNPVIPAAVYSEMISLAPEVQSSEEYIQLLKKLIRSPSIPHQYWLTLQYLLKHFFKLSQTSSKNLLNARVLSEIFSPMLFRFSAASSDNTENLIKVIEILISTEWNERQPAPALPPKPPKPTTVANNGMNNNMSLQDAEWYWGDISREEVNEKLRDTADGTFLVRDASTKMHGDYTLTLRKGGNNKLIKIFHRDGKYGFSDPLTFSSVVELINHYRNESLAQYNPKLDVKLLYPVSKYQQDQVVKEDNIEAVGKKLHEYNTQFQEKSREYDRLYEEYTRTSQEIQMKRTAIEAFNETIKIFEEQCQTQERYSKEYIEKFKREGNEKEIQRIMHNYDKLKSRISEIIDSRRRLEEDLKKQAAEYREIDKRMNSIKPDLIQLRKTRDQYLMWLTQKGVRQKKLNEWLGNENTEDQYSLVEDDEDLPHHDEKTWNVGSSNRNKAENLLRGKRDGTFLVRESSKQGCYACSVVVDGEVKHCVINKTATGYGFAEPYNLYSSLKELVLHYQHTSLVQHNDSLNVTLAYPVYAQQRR
Description: as §1, §2, §3, §4, §5, §6, §7, §8, §9, §10, §11, §12

PI3Kβ = PI3Kβ (Homo sapiens, UniProt P42338); assay: PI3K HTRF assay, PI3K-beta; type: biochemical; conditions: read-out: pIC50 PI3Kβ (converted); note: 400 µM ATP
Sequence of PI3Kβ (P42338 whole entry, species assumed): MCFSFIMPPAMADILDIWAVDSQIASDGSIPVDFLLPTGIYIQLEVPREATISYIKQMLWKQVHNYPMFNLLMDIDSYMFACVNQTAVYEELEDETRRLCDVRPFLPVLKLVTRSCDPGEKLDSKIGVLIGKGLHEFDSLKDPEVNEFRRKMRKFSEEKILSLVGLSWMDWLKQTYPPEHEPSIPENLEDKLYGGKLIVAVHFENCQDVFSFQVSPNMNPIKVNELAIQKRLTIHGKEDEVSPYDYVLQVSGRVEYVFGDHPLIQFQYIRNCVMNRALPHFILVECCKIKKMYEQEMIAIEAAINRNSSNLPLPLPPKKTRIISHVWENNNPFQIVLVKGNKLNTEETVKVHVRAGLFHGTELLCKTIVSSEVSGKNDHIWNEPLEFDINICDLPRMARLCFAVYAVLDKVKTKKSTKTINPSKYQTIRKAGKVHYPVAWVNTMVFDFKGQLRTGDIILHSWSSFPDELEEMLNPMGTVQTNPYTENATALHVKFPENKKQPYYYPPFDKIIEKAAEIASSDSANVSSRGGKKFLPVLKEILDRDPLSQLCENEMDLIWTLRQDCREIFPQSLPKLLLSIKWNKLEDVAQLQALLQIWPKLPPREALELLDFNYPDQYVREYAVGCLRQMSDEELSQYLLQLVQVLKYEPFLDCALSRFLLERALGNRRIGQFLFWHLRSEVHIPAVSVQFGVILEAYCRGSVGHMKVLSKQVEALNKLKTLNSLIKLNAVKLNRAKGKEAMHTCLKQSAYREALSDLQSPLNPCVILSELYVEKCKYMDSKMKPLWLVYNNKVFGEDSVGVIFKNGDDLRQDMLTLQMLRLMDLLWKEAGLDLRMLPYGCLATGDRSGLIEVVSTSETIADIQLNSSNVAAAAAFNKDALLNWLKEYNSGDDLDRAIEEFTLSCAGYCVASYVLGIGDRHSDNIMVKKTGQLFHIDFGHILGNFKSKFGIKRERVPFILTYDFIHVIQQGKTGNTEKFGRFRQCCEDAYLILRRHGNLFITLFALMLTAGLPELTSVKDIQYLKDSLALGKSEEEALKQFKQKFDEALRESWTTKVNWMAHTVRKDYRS
Sequence of PI3Kβ (P27986 whole entry partner, species assumed): as the sequence (P27986 whole entry partner, species assumed) above
Description: as §1, §2, §3, §4, §5, §6, §7, §8, §9, §10, §11, §12

PI3Kδ [1] = target: T1, PI3Kδ (Homo sapiens, UniProt O00329); assay: Protein mass spectrometry: covalent adduct assessment and competition experiment; type: binding
T1 sequence (O00329 whole entry): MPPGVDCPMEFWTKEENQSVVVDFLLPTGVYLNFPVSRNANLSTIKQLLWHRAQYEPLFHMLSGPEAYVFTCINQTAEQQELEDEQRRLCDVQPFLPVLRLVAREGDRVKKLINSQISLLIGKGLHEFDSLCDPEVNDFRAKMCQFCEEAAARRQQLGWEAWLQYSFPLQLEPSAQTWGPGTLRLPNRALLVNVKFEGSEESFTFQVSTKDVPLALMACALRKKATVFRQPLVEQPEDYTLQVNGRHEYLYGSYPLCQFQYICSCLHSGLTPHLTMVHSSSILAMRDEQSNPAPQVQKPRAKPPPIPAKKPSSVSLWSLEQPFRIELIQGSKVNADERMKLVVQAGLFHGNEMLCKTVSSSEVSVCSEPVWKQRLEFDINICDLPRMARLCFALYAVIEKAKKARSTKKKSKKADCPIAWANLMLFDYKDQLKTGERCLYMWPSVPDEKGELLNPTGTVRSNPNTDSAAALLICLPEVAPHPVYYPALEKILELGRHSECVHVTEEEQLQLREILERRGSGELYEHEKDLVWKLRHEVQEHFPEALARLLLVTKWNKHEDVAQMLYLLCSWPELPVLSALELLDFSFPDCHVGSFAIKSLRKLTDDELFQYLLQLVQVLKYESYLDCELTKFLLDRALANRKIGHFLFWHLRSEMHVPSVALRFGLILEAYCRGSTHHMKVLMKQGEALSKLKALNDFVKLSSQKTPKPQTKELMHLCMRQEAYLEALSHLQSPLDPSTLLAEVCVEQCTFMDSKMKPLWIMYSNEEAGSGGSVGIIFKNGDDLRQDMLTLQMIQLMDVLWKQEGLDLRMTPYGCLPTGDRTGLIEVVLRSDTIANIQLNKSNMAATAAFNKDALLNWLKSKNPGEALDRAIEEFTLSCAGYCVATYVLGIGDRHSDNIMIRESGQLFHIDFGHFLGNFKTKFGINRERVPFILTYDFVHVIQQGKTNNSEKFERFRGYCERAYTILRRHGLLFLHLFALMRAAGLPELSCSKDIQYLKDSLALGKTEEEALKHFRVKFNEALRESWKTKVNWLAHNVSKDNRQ
T1 sequence (P27986 whole entry partner): as the sequence (P27986 whole entry partner, species assumed) above
Description: Compounds were incubated with 1 μM protein in a 10:1 inhibitor:protein ratio in buffer containing 50 mM HEPES, pH 7.0 (NaOH), 150 mM NaCl, 10 mM MgCl2, 2.3 mM cholate, 10 μM CHAPS. After the desired time, the assays were quenched with a 10% formic acid solution, and analysed by LCMS using an Agilent 6224 TOF LC/MS equipped with Agilent 1200 Series autosampler. Analytes were separated on a Polymer Labs (Agilent) PLRP-S column (50 mm×1 mm internal diameter, 5 μm particle size). LC conditions were 0.5 mL·min^−1 flow rate, 70° C., 10 μL injection volume. Gradient elution with (A) water containing 0.2% (v/v) formic acid and (B) acetonitrile containing 0.2% (v/v) formic acid. Gradient conditions were initially 10% B, increasing to 30% after 0.5 min, and then linearly to 80% B over 4.5 min, prior to a 1.2 min flush with 100% B and then a 1.9 minute equilibration with 10% B prior to the next injection. Mass spectra were then deconvoluted using Agilent MassHunter Qualitative Analysis version B.06.00 over the mass range 70-170 kDa to obtain the intact protein mass.
A potent reversible ATP competitive inhibitor was incubated with 1 μM protein in a 10:1 inhibitor:protein ratio in buffer containing 50 mM HEPES, pH 7.0 (NaOH), 150 mM NaCl, 10 mM MgCl2, 2.3 mM cholate, 10 μM CHAPS at room temperature. […] The assay was quenched at 5 min and analysed using the procedure detailed above.

PI3Kδ [2] = target: T1, PI3Kδ; assay: PI3Kδ jump dilution experiment; type: biochemical; conditions: 15 min incubation, 100-fold dilution, read for 30 minutes
Description: Irreversibility of the PI3Kδ-Inhibitor complex, and reversibility of the non-covalent controls, was determined by jump-dilution assay as follows:
PI3Kδ enzyme was made up to a 100× assay concentration (final assay concentration=6 nM) in buffer solution (contains 50 mM HEPES pH 7.0 (NaOH), 150 mM NaCl, 10 mM MgCl2, 2.3 mM sodium cholate, 10 μM CHAPS made up in milliQ water).
100× enzyme solution was added to compound wells (20 μL/well), and incubated for 15 mins, after which point the assay was diluted 100-fold with commercially available ADP QUEST substrate solution, available from DiscoverX (calatog number: 90-0071), (3200 μL DiscoverX Reagent A, 6400 μL DiscoverX Reagent B, 1 mM ATP and 40 μM PIP2). Production of fluorescence signal was then measured immediately using a Tecan Safire II plate reader at 30 second intervals for 30 minutes (λex=544 nm, λem=590 nm).

IC50 (PI3Kγ): 15.8 µM | IC50 (PI3Kα): 3.16 µM | IC50 (PI3Kβ): 5.01 µM | Additional adducts on PI3Kδ (PI3Kδ [1]; 10:1 inhibitor:protein ratio, after 20 h (overnight)): no additional adducts | Covalent modification of PI3Kδ (protein mass spectrometry) (PI3Kδ [1]; 10:1 inhibitor:protein, incubated overnight): covalently modified | Recovery of enzyme activity after jump dilution (PI3Kδ [2]): No recovery of activity
Compound: COc1ncc(-c2cc(-c3ncc(CN4CCN(C(C)C)CC4)o3)c3cn[nH]c3c2)cc1C(=O)Oc1ccc(F)cc1 [Example 7, 4-Fluorophenyl 5-(4-(5-((4-isopropylpiperazin-1-yl)methyl)oxazol-2-yl)-1H-indazol-6-yl)-2-methoxynicotinate]
Duration of action at PI3Kδ in CD4+ T cells (PI3Kδ in CD4+ T cells): at least 48 h | Adduct formation after preincubation of enzyme with potent ATP-competitive inhibitor (PI3Kδ [1]; competitor 10:1 for 15 min, then 2 equivalents of covalent inhibitor, quenched at 5 min): prevented covalent modification; also recorded: attentuated formation of this adduct
